Key:
[1] = tested on: Tregs in the peripheral blood; test: Proportion of Tregs in peripheral blood of chronic myelogenous leukemia patients treated with Gleevec (FACS, CD45RA/FoxP3); type: in vivo, human; conditions: peripheral blood after treatment
Procedure: Specifically, peripheral blood mononuclear cells in the peripheral blood were harvested, CD4^+ cells were gated using anti-CD4 antibody labeled with BD Horizon V500, and the cells were stained with FITC-labeled anti-CD45RA antibody and PE-labeled anti-FoxP3 antibody. Subsequently, CD45RA and FoxP3 expression levels were measured by FACS analysis. For comparison, the proportion of Tregs in the peripheral blood of a healthy donor was similarly measured.
In FIG. 1, fraction I (CD45RA^+FoxP3^low) represents naive Tregs, fraction II (CD45RA^−FoxP3^high) represents effector Tregs, and fraction III (CD45RA^−FoxP3^low) represents non-suppressive Tregs.

[2] = tested on: CD45RA-FoxP3high cells (fraction II: effector Tregs); test: Apoptosis of fractionated T cells cultured with imatinib (Annexin V and 7-AAD); type: cell-based, human; conditions: effector Tregs of a healthy donor, cultured 5 days at 37 C
effector Tregs [3] = test: Effector Tregs after imatinib addition and antigen stimulation, healthy donor peripheral blood; type: cell-based, human; conditions: imatinib 5 uM, 1 day, then antigen 10 uM, 10 days; healthy donors HD1-HD3
[4] = tested on: Melan A-specific CD8+ T cells; test: Melan-A-specific CD8+ T cell induction, healthy donor peripheral blood (tetramer); type: cell-based, human; conditions: imatinib 5 uM, 1 day, then Melan-A 10 uM, 10 days; healthy donors
[5] = tested on: cytomegalovirus-specific CD8+ T cells; test: Cytomegalovirus-specific CD8+ T cell induction, healthy donor peripheral blood (tetramer); type: cell-based, human; conditions: imatinib 5 uM, then cytomegalovirus antigen 10 uM, 10 days; healthy donor HD1
effector Tregs [6] = test: Effector Tregs after imatinib addition and Melan-A stimulation, malignant melanoma patient peripheral blood; type: cell-based, human; conditions: imatinib 5 uM, 1 day, then Melan-A 10 uM, 10 days; melanoma patients Pt1-Pt3
Procedure: (§1) […]. Initially, Gleevec (Novartis Pharma K.K.; […]. Subsequently, cancer antigen (Melan-A) was added at a concentration of 10 μM to stimulate the cells, and the cells were cultured at 37° C. for 10 days. After the culture, the number of effector Tregs was measured as in Test Example 1 above. In addition, after the culture, analysis with the tetramer was performed as in Test Example 6 above to examine specific CD8^+ T cell induction.

[7] = tested on: Melan-A-specific CD8+ T cells; test: Specific CD8+ T cell induction, malignant melanoma patient peripheral blood (tetramer); type: cell-based, human; conditions: imatinib 5 uM, 1 day, then Melan-A 10 uM, 10 days; melanoma patients Pt1-Pt3
Procedure: as §1

[8] = tested on: influenza virus-specific CD8+ T cells; test: Influenza virus-specific CD8+ T cell induction, healthy donor peripheral blood (tetramer); type: cell-based, human; conditions: imatinib 5 uM, then influenza virus antigen peptide 10 uM
Procedure: Specifically, analysis on specific CD8^+ T cell induction was performed as in Test Example 6 above, except that instead of cytomegalovirus antigen, an influenza virus antigen peptide was added at a concentration of 10 μM to stimulate the cells, and that influenza-specific tetramer was used.

Ki-67+ Treg cells = test: Inhibitory action upon Treg cells in vivo, FACS of spleen cells of BALB/c mice; conditions: 2 mg or 8 mg imatinib once a day for 1 week, orally or intraperitoneally
Procedure: The expression of Foxp3 and CD25 in CD4^+ T cells and the expression of Ki-67 and CD44 in CD4^+Foxp3^+ T cells were analyzed by FACS.

[9] = tested on: CD45RA-FoxP3high cells (fraction II: effector Tregs); test: Ki-67 expression in effector Tregs cultured in the presence of imatinib (FACS); type: cell-based, human; conditions: imatinib 10 uM, cultured 4 days
Caspase 3/7 = Caspase 3/7 activation in T cell fractions cultured with imatinib under anti-CD3/anti-CD28 stimulation; type: cell-based, human; conditions: imatinib 10 uM, 4 days, anti-CD3/anti-CD28 beads; effector Treg-specific
Procedure: […]; Novartis Pharma K.K.; […]. After the culture, the activation level of Caspase 3/7 in T cells of each fraction was measured using CellEvent Caspase 3/7 green and SYTOX AADvanced. […].
In FIG. 18, the vertical axis represents the proportion (%) of T cells having activated Caspase 3/7. […]

[10] = tested on: effector Tregs in the peripheral blood; test: Proportion of effector Tregs in peripheral blood of patients switched from Gleevec to nilotinib; type: in vivo, human; conditions: three patients (Cases 1, 2 and 3), CMR state after switching to nilotinib
BCR-ABL = conditions: cited from earlier work
[11] = tested on: leukemic cells bearing Bcr-Abl gene; test: Molecular response of chronic myelogenous leukemia patients switched to nilotinib; conditions: three patients in which CMR was not achieved by Gleevec

Row | Compound | naive Tregs (fraction I) in CD4+ cells ([1]; CMR patients (49)) | proportion of effector Tregs (fraction II) in CD4+ cells ([1]; CMR patients (49)) | naive Tregs (fraction I) in CD4+ cells ([1]; Non-CMR patients (38)) | proportion of effector Tregs (fraction II) in CD4+ cells ([1]; Non-CMR patients (38)) | proportion of apoptotic cells [2] | number of effector Tregs (effector Tregs [3]) | Melan-A-specific CD8+ T cell induction [4] | cytomegalovirus-specific CD8+ T cell induction [5] | number of effector Tregs (effector Tregs [6]) | specific CD8+ T cell induction (immune responses against malignant melanoma) [7] | influenza virus-specific CD8+ T cell induction [8] | expression of Ki-67 and CD44 in CD4+Foxp3+ T cells of spleen (Ki-67+ Treg cells) | expression level of Ki-67 in effector Tregs [9] | proportion (%) of T cells having activated Caspase 3/7 (Caspase 3/7) | proportion of effector Tregs in the peripheral blood [10] | affinity for BCR-ABL relative to imatinib (BCR-ABL) | complete molecular response (CMR) [11]
1 | Cc1ccc(NC(=O)c2ccc(CN3CCN(C)CC3)cc2)cc1Nc1nccc(-c2cccnc2)n1 [imatinib] | reduction in naive Tregs | significant reduction in the proportion of effector Tregs | no reduction in naive Tregs | no reduction in the proportion of effector Tregs | increases the proportion of apoptotic cells | induces a reduction in effector Tregs | potentiation of Melan-A-specific CD8^+ T cell induction | potentiated the induction of cytomegalovirus-specific CD8^+ T cells | induces a reduction in effector Tregs | activation of immune responses against malignant melanoma | potentiates the induction of influenza virus-specific CD8^+ T cells | selectively inhibits Ki-67^+ Treg cells | selectively reduced | activates Caspase 3/7 |  |  | 
2 | Cc1cn(-c2cc(NC(=O)c3ccc(C)c(Nc4nccc(-c5cccnc5)n4)c3)cc(C(F)(F)F)c2)cn1 [nilotinib] |  |  |  |  |  |  |  |  |  |  |  |  |  |  | a reduction in effector Tregs was not observed | higher affinity for BCR-ABL than that of imatinib | CMR was achieved

From US20170216288A1, “IMMUNOPOTENTIATOR POTENTIATING TUMOR IMMUNITY OR INFECTION IMMUNITY” (priority 2014, published 2017)
